Residues, ends and D or L forms follow the SMILES beside them.
What was measured:
[1] = tested on: Envelope glycoprotein gp160 (Human immunodeficiency virus 1), Q72502 [V38A]; test: Binding affinity to HIV1 His-tagged N-terminal heptad repeat of envelope glycoprotein gp41 assessed as recovery of N36 V38A mutant-drug complex after 2 hrs by LC-MS analysis; set-up: concentration or dose not given beside the values
[2] = tested on: Envelope glycoprotein gp160 (Human immunodeficiency virus 1), Q72502 [V38A]; test: Thermal stability of HIV1 envelope glycoprotein gp41 His-tagged N-terminal heptad repeat N36 V38A mutant-drug complex assessed as thermal unfolding transition state by measuring molar ellipticity at 4 to 90 degC by circular dichroic spectra analysis
[3] = tested on: Human immunodeficiency virus 1; test: Thermal stability of HIV1 envelope glycoprotein gp41 His-tagged N-terminal heptad repeat N36-drug complex assessed as thermal unfolding transition state by measuring molar ellipticity at 4 to 90 degC by circular dichroic spectra analysis
[4] = tested on: Human immunodeficiency virus 1; test: Binding affinity to HIV1 His-tagged N-terminal heptad repeat of envelope glycoprotein gp41 assessed as recovery of N36-drug complex after 2 hrs by LC-MS analysis; set-up: concentration or dose not given beside the values
[5] = tested on: Human immunodeficiency virus 1; test: Binding affinity to HIV1 His-tagged N-terminal heptad repeat of envelope glycoprotein gp41 assessed as recovery of N36-drug complex at 6 uM after 2 hrs by LC-MS analysis
[6] = tested on: Human immunodeficiency virus 1; test: Binding affinity to HIV1 His-tagged N-terminal heptad repeat of envelope glycoprotein gp41 assessed as recovery of N36-drug complex at 0.6 uM after 2 hrs by LC-MS analysis
[7] = tested on: Human immunodeficiency virus 1; test: Binding affinity to HIV1 His-tagged N-terminal heptad repeat of envelope glycoprotein gp41 assessed as recovery of N36 N43D mutant-drug complex after 2 hrs by LC-MS analysis; set-up: concentration or dose not given beside the values
[8] = tested on: Human immunodeficiency virus 1; test: Binding affinity to HIV1 His-tagged N-terminal heptad repeat of envelope glycoprotein gp41 assessed as recovery of N36-drug complex at 1 uM after 2 hrs by LC-MS analysis
[9] = tested on: Human immunodeficiency virus 1; test: Binding affinity to HIV1 His-tagged N-terminal heptad repeat of envelope glycoprotein gp41 assessed as recovery of N36-drug complex at 10 uM after 2 hrs by LC-MS analysis
[10] = tested on: Human immunodeficiency virus 1; test: Antiviral activity against HIV1 NL4-3 harboring gp41 D36G mutant infected in human HeLa cells expressing CD4-LTR-beta-gal assessed as inhibition of viral replication after 48 hrs by MAGI assay; format: functional, organism-based
[11] = tested on: Human immunodeficiency virus 1; test: Thermal stability of HIV1 envelope glycoprotein gp41 His-tagged N-terminal heptad repeat N36 N43D mutant-drug complex assessed as thermal unfolding transition state by measuring molar ellipticity at 4 to 90 degC by circular dichroic spectra analysis

Compound	Activity [1] [%]	Tm [2] [°C]	Tm [3] [°C]	Activity [4] [%]	Activity [5] [%]	Activity [6] [%]	Activity [7] [%]	Activity [8] [%]	Activity [9] [%]	EC50 [10] [nM]	Tm [11] [°C]
CC[C@H](C)[C@H](NC(=O)[C@H](CC(C)C)NC(=O)[C@H](CCC(=O)O)NC(=O)[C@H](CCC(=O)O)NC(=O)[C@@H](NC(=O)[C@H](CCCCN)NC(=O)[C@H](CCCCN)NC(=O)[C@@H](NC(=O)[C@H](Cc1ccc(O)cc1)NC(=O)[C@H](CCC(=O)O)NC(=O)[C@H](CCC(=O)O)NC(=O)[C@@H](NC(=O)[C@H](CCCCN)NC(=O)[C@H](CCCCN)NC(=O)[C@H](CC(=O)O)NC(=O)[C@H](Cc1c[nH]c2ccccc12)NC(=O)[C@H](CCC(=O)O)NC(=O)[C@H](CCC(=O)O)NC(=O)[C@H](Cc1c[nH]c2ccccc12)NC(C)=O)[C@@H](C)CC)[C@@H](C)O)[C@@H](C)CC)C(=O)N[C@@H](CCCCN)C(=O)N[C@@H](CCCCN)C(=O)N[C@@H](CO)C(=O)N[C@@H](CCC(=O)O)C(=O)N[C@@H](CCC(=O)O)C(=O)N[C@@H](CCC(N)=O)C(=O)N[C@@H](CCC(N)=O)C(=O)N[C@@H](CCCCN)C(=O)N[C@@H](CCCCN)C(=O)N[C@@H](CC(N)=O)C(=O)N[C@@H](CCC(=O)O)C(=O)N[C@@H](CCC(=O)O)C(=O)N[C@@H](CCC(=O)O)C(=O)N[C@@H](CC(C)C)C(=O)N[C@@H](CCCCN)C(=O)N[C@@H](CCCCN)C(N)=O (Ac-WEEWDKKIEEYTKKIEELIKKSEEQQKKNEEELKK-NH2)	11.8	72.6	81.6	10.1	19.2	5.8	10.9	11.5	22.8	1	69.9
CC[C@H](C)[C@H](NC(=O)[C@H](CC(C)C)NC(=O)[C@H](CCC(=O)O)NC(=O)[C@H](CCC(=O)O)NC(=O)[C@@H](NC(=O)[C@H](CCCCN)NC(=O)[C@H](CCCCN)NC(=O)[C@@H](NC(=O)[C@H](Cc1ccc(O)cc1)NC(=O)[C@H](CCC(=O)O)NC(=O)[C@H](CCC(=O)O)NC(=O)[C@@H](NC(=O)[C@H](CCCCN)NC(=O)[C@H](CCCCN)NC(=O)[C@H](CC(=O)O)NC(=O)[C@H](Cc1c[nH]c2ccccc12)NC(=O)[C@H](CCC(=O)O)NC(=O)[C@H](CCC(=O)O)NC(=O)[C@H](Cc1c[nH]c2ccccc12)NC(C)=O)[C@@H](C)CC)[C@@H](C)O)[C@@H](C)CC)C(=O)N[C@@H](CCCCN)C(=O)N[C@@H](CCCCN)C(=O)N[C@@H](Cc1c[nH]c2ccccc12)C(=O)N[C@@H](CCC(=O)O)C(=O)N[C@@H](CCC(=O)O)C(=O)N[C@@H](CCC(N)=O)C(=O)N[C@@H](CCC(N)=O)C(=O)N[C@@H](CCCCN)C(=O)N[C@@H](CCCCN)C(=O)N[C@@H](CC(N)=O)C(=O)N[C@@H](CCC(=O)O)C(=O)N[C@@H](CCC(=O)O)C(=O)N[C@@H](CCC(=O)O)C(=O)N[C@@H](CC(C)C)C(=O)N[C@@H](CCCCN)C(=O)N[C@@H](CCCCN)C(N)=O (Ac-WEEWDKKIEEYTKKIEELIKKWEEQQKKNEEELKK-NH2)	1	64.6	66.4	–	0.3	6.2	2.4	0.9	0.5	3.1	66

From ChEMBL document CHEMBL3390848, “Affinity selection and sequence-activity relationships of HIV-1 membrane fusion inhibitors directed at the drug-resistant variants” (Medchemcomm, 2010)
